# Experimental data from US10912767B2, “Anthracycline prodrugs and methods of making and using the same” (THE REGENTS OF THE UNIVERSITY OF COLORADO, priority 2015, dated 2021).
# Like-named read-outs stand apart in the source and are kept apart here.
# Key:
# [1] = Quantum yield of photocleavage, He-Cd laser 325 nm, HPLC; type: physicochemical
# Description: Initially, measurement of the quantum yield of photodoxazolidine R═H was done in a fully-absorbing solution of photoactive drug in a solution of 90% dimethylacetamide (DMA), 10% water in a 1×1 cm quartz cuvette equipped with a small magnetic stir bar. A stock of photodoxazolidine in DMA was diluted in 9:1 DMA:H2O to a final concentration of 373 μM in a final volume of 3.380 mL. […] The cuvette was placed into the path of an Omnichrome He-Cd laser (single-window power: 10.75 mW at 325 nm using a Scientech laser power meter). The solution was mixed by the stir bar, which was agitated with a magnetic stir plate placed vertically next to the cuvette. Aliquots of 20 μL were removed at times between 0 and 62 min of irradiation and those aliquots were analyzed by HPLC (method 2) for the ratio of dox to photodoxazolidine. The quantum yield was calculated from the ratio of molecules of doxorubicin (dox) formed to photons absorbed.
# To allow for better comparison between the quantum yield of photocleavage of photodoxazolidine with the quantum yield for azido-PEG-photodoxazolidine, the measurement was retaken with 50% acetonitrile in water as a solvent. […] Photodoxazolidine (in DMF) was diluted with 30 mL of 50% acetonitrile to a final concentration of 104 μM. The solution was confirmed to be fully absorbing by monitoring the laser power exiting the cell throughout the course of the experiment, which never deviated from 0 mW. As above, the contents of the cell were mixed with a small magnetic stir bar. Aliquots of 50 μL were removed at various times and analyzed as described above. The calculated quantum yield in this solvent system was identical to that measured from the […] system used above.
# Concentration of azido-PEG-photodoxazolidine was determined via absorbance (λ=480 nm, ε=11500 M^−1 cm^−1). A sample ([…]) was dissolved in 1 mL of ACN and transferred to a cuvette. A 12.4 mW Omnichrome HeCd was used to irradiate the solution for 30 min at 325 nm. Aliquots of 10 μL were collected at different times and analyzed by HPLC to determine the % Dox in relation to that of azido-PEG-photodoxazolidine. In calculating quantum yield: power (without cuvette)=12.4 mW, (with cuvette)=10.7 mW, incident light=11.55 mW; energy=0.462 J, 7.55×1017 photons; t=40 sec when % Dox=9.2. Experiments were performed in triplicate.
# Azido-PEG-photodoxazolidine was irradiated with a 12.4 mW monochromatic laser at 325 nm for 30 min. Aliquots were collected throughout to determine the amount of azido-PEG-photodoxazolidine in relation to released doxorubicin, which was quantified by HPLC. […] The average of triplicate quantum yield experiments was 0.025. This value is in the low end of the quantum yield range, yet is beneficial because it signifies that UV must be applied for longer durations prior to release of the cytotoxic agent. This makes administration of this photo-activated prodrug safer, and its synthesis more practical.
# [2] = tested on: MDA-MB-231 breast carcinoma cells; assay: Tumor cell uptake by flow cytometry; type: cell-based, human; settings: 500 nM, 30 min to 4 h, compared against doxorubicin
# Description: Uptake of the drugs by the cells was measured by flow cytometry. The cells were incubated with 500 nM photodoxazolidine R═H, azido-PEG-photodoxazolidine, or doxorubicin dissolved in 1:1 PBS:serum-free media for between 30 min and 4 h, after which the drug was removed and the cells washed with cold PBS. Cells were trypsinized to a single-cell suspension, rinsed again in cold PBS, and stored on ice for analysis by flow cytometry, monitoring the presence of the anthraquinone fluorophore (channel FL2). Cell populations were gated for intact cells in the side-scatter/forward-scatter plot and 10,000 gated events were scored for each timepoint. The mean fluorescence of the population was compared to the mean fluorescence of 10,000 gated events for an untreated population and the fold increase over background was plotted versus time of drug incubation.
# Using MDA-MB-231 breast carcinoma cells, the cellular uptake of photodoxazolidine and azido-PEG-photodoxazolidine was analyzed by flow cytometry and compared against the uptake of doxorubicin.
# [3] = tested on: NCI/ADR-RES multi-drug resistant ovarian cancer cell line; assay: Tumor cell growth inhibition, crystal violet (Example 2); type: cell-based; settings: Homo sapiens
# Excerpt: (§1) In order to investigate the photolysis of the drugs in a system amenable to cell culture use, a custom UV irradiation apparatus was constructed, consisting of 3 small blacklight fluorescent bulbs (Southern New England Ultraviolet Co., λmax=350 nm) set between two ring stands and suspended at a height of 11.5 cm. The bulbs' housing was reflective aluminum so as to direct as much UV irradiation as possible downward toward the plate. Upon installation in sterile cell culture hood, the power of the system was measured at approximately 6-7 mW using a Scientech laser power meter. Prior to experimentation, the hood and irradiation apparatus was sterilized with 254 nm germicidal UV irradiation overnight. Using this setup, 100 μM of 4,5-dimethoxy-2-nitrobenyl alcohol (DMNA), photodoxazolidine R═H, and glucose-PEG-photodoxazoldine were irradiated in individual wells of a 24-well plate. Initially, 50 μL of a DMSO stock was diluted with 950 μL of PBS and aliquots of 50 μL were removed at various times (0-180 min), mixing by pipetting each time. The timepoints were analyzed by HPLC (method 2) and plotted as fractional conversion versus time. […] Therefore, a second experiment was performed in which the PBS was replaced with 1:1 acetonitrile:water. With this system of 5% DMSO/47.5% acetonitrile/47.5% water, no visible precipitation was produced over the course of the reaction.
# (§2) The ovarian carcinoma line NCl/ADR-RES (ADR) was grown in high-glucose Dulbecco's Modified Eagle Medium (DMEM) supplemented with 10% fetal bovine serum (FBS), 200 units/mL of penicillin and 200 μg/mL of streptomycin. The breast carcinoma line MDA-MB-231 was cultured in low-glucose DMEM with the same additives. Both lines were maintained in a humidified incubator with 5% CO2/95% air at 37° C. UV irradiations were performed with the apparatus described above.
# (§3) Growth inhibition experiments were performed by seeding cells into 96-well plates or 24-well plates at densities of 1000-1500 cells per well or 8000 cells per well, respectively, and allowing the cells to adhere overnight. The media was then replaced with a range of aqueous concentrations of the drug in question and allowed to incubate at 37° C. with the cells for a span of time (Inc1) which ranged from 1 min to 48 hours. Irradiation was performed at room temperature with the plate's lid removed and ranged from 1 to 30 min. In some experiments, the drug solution was removed following Inc1 and irradiated in clean media or PBS. Following irradiation, the cells were placed back into the 37° C. incubator for a second period of incubation (Inc2), which varied between 1 min and 24 h, prior to replacement with fresh media. Plates which received no irradiation but identical treatment otherwise were done in parallel. The cells were then grown until the no-drug control wells reached approximately 80% confluence or 5 days, whichever was shorter. […] The cells were fixed with 5% formalin in PBS, stained with crystal violet, washed with tap water, and air-dried. The stain was resolubilized in 50% isopropyl alcohol, 50% H2O containing 2% (w/v) SDS. The staining density was read on a multiwell plate reader at 588-600 nm. Percentage cell density was calculated relative to the irradiated no-drug control wells, plotted as a function of drug concentration, and fit using non-linear least squared analysis with a variable-slope dose response model in GraphPad Prism 5.0 software.
# (§4) Although the introduction of a long-pass glass filter between the light source and the plate alleviated this effect to a small extent, a maximum irradiation time of 10 min was settled upon. […] Since a media change at that point would remove the cells as well, the re-adherence of the cell population was accomplished by the addition of a large volume (200 μL) of complete media following Inc2, and overnight incubation. Then, a full media change was done to remove the drug. […]
# [4] = tested on: MDA-MB-231 breast cancer cells; assay: as above; type: cell-based, human; settings: Homo sapiens
# Excerpt: as §1, §2, §3, §4
# [5] = In vivo body weight change as indication of toxicity; design: species or system nude mice; settings: 4 mg/kg dox equivalent iv weekly x6; photodoxazolidine with 18-FDG ip
# Description: For reconstitution for intravenous injection into mice, dry photodoxazolidine R═H (23 mg) was dissolved in 785 μL of DMSO for a final concentration of 34.5 mM, labeled “Drug Stock,” and stored dark at −20° C. Shortly before injection, the Drug Stock was thawed and 20-50 μL was transferred to a new tube. To this tube, 6 volumes (relative to the Drug Stock volume) of PEG-400 and 4 volumes of propylene glycol (PG) were added and the solution thoroughly mixed by vortexing. Immediately prior to injection, 9 volumes of saline (0.9% NaCl) was added to the DMSO/PEG/PG solution of photodoxazolidine and mixed by vortexing. […] Therefore, this formulation was used as prepared. This protocol produces a final formulation of 5% DMSO, 30% PEG-400, 20% PG, 45% saline. A standard injection of 100 μL of this formulation delivers 4 mg dox equivalent/kg body weight for a mouse weighing 0.025 kg.
# Luciferase-positive MDA-MB-231 cells were maintained in MEM culture medium supplemented with 10% heat inactivated fetal bovine serum and 2% penicillin/streptomycin. Prior to injection, typsinized cell populations were counted with a Z1 Coulter Particle counter, centrifuged, and resuspended in Hank's Balanced Salt Solution (HBSS) at a concentration of 4.0×10^7 cells/mL. […] Body weight and tumor growth were measured regularly. Tumor growth was measured optically from the bioluminescence signal from injection of luciferin. […]
# cancer cells = settings: cited from earlier work
# [6] = 37° C., pH 7.4; cited from earlier work
compound,measurement,setting,value
COc1cc(C(C)OC(=O)N2CO[C@@H]3[C@H](C)O[C@@H](O[C@H]4C[C@](O)(C(=O)CO)Cc5c(O)c6c(c(O)c54)C(=O)c4c(OC)cccc4C6=O)C[C@@H]32)c([N+](=O)[O-])cc1OCC(=O)NCCOCCOCCOCCN=[N+]=[N-] (mixture of isomers) [Azido-PEG-photodoxazolidine],"quantum yield, fold larger than photodoxazolidine",[1],5-10 fold
same,doxorubicin released,"[1]; 40 sec irradiation, 12.4 mW laser at 325 nm",9.2%
same,quantum yield,"[1]; ACN, 325 nm, average of triplicate",0.025
same,quantum yield,[1]; stated as suspected,0.01-0.02
same,cellular uptake (cellular fluorescence),[2],only marginally improved uptake over doxorubicin
same,IC50,[3]; 10 min,81 ± 7 nM
"COc1cccc2c1C(=O)c1c(O)c3c(c(O)c1C2=O)C[C@@](O)(C(=O)CO)C[C@@H]3O[C@H]1C[C@H](N)[C@H](O)[C@H](C)O1 [Dox, doxorubicin, reference compound]",IC50,"[4]; MDA-MB-231, 3 h treatment, read-out: IC50",360 ± 30 nM
same,body weight change,[5],significant weight loss
same,IC50,"[3]; 3 h treatment, read-out: IC50",10000 nM
COc1cccc2c1C(=O)c1c(O)c3c(c(O)c1C2=O)C[C@@](O)(C(=O)CO)C[C@@H]3OC1CC2C(OCN2CN2COC3C(C)OC(O[C@H]4C[C@](O)(C(=O)CO)Cc5c(O)c6c(c(O)c54)C(=O)c4c(OC)cccc4C6=O)CC32)C(C)O1 (stereo partly shown) [DoxF],"anti-tumor activity, fold above doxorubicin",cancer cells,approximately 100 fold
"COc1cccc2c1C(=O)c1c(O)c3c(c(O)c1C2=O)C[C@@](O)(C(=O)CO)C[C@@H]3O[C@H]1C[C@@H]2NCO[C@@H]2[C@H](C)O1 [Doxaz, doxazolidine, reference compound]",half-life,[6],3 min
same,IC50,"[4]; MDA-MB-231, 3 h",5 to 10 nM
same,IC50,[3]; 3 h,3 ± 0.2 nM
